Assay results taken from patent US20190264193A1, “PROTEIN ENGINEERING METHODS” (Caribou Biosciences, Inc., priority 2016, published 2019).

Key:
DNA-PK [1] = target: T1, DNA-PK (Homo sapiens, UniProt P78527); assay: NU7441 five point dose response on DNA repair patterns after sgRNP nucleofection; assay type: cell-based; conditions: HEK293 T cells
Procedure: In order to assess whether compounds can alter the DNA repair pathways, the following experiment was conducted with methods as described in van Overbeek et al., Molecular Cell (2016) http://dx.doi.org/10.1016/j.molcel.2016.06.037. Briefly, to test the hypothesis that suppression of c-NHEJ would alter the DNA repair landscapes, favoring MMEJ repair outcomes, a chemical inhibitor of DNA-PK, NU7441, was added to HEK293 T cells one hour post nucleofection in a five point dose response. Genomic lysate was harvested 48 hours post nucleofection and processed.
As inhibitor concentration increased, the mean frequency of single base insertions and small deletions (<3 base pairs) decreased, whereas the mean frequency of a subset of large deletions (>3 base pairs) present in the DNA repair profiles increased. This experiment evidences that the suppression of c-NHEJ enhances DNA repair by MMEJ pathways after DSB formation by Cas9.

DNA-PK [2] = target: T1, DNA-PK; assay: DNA repair outcomes after Cas9 cleavage by amplicon sequencing, HEK293 plus NU7441; assay type: cell-based; conditions: JAK1 target site; 48 hours after nucleofection of sgRNP in HEK293 plus NU7441 (FIG. 6F)
Procedure: In order to assess DNA repair outcomes in human cells, the following experiment was conducted using methods as described in van Overbeek et al., Molecular Cell (2016) http://dx.doi.org/10.1016/j.molcel.2016.06.037. Briefly, the repair outcomes following Cas9 cleavage of double-stranded DNA, which result in blunt end products, were profiled using computational tools developed to categorize indels from a cell-based assay. To this end, HEK293, K562 and CCRF-CEM cells were transfected with pre-assembled complexes of Cas9 protein and sgRNA (single-guide RNA ribonucleoprotein complexes (sgRNPs). The Cas9/sgRNA complexes used were prepared as described in van Overbeek et al., Molecular Cell (2016) http://dx.doi.org/10.1016/j.molcel.2016.06.037. DNA repair patterns following Cas9 cleavage were analyzed by amplicon sequencing at time points as shown in FIGS. 6A-6F.
Sequencing reads were assigned to a specific indel class based on the indel type (insertion or deletion), start site, and length (or to the wild-type class), and then the frequency of each class was calculated as a fraction of aligned reads or as a fraction of mutant reads. […]

[3] = as inhibitor concentration increased

T1 sequence (P78527 whole entry): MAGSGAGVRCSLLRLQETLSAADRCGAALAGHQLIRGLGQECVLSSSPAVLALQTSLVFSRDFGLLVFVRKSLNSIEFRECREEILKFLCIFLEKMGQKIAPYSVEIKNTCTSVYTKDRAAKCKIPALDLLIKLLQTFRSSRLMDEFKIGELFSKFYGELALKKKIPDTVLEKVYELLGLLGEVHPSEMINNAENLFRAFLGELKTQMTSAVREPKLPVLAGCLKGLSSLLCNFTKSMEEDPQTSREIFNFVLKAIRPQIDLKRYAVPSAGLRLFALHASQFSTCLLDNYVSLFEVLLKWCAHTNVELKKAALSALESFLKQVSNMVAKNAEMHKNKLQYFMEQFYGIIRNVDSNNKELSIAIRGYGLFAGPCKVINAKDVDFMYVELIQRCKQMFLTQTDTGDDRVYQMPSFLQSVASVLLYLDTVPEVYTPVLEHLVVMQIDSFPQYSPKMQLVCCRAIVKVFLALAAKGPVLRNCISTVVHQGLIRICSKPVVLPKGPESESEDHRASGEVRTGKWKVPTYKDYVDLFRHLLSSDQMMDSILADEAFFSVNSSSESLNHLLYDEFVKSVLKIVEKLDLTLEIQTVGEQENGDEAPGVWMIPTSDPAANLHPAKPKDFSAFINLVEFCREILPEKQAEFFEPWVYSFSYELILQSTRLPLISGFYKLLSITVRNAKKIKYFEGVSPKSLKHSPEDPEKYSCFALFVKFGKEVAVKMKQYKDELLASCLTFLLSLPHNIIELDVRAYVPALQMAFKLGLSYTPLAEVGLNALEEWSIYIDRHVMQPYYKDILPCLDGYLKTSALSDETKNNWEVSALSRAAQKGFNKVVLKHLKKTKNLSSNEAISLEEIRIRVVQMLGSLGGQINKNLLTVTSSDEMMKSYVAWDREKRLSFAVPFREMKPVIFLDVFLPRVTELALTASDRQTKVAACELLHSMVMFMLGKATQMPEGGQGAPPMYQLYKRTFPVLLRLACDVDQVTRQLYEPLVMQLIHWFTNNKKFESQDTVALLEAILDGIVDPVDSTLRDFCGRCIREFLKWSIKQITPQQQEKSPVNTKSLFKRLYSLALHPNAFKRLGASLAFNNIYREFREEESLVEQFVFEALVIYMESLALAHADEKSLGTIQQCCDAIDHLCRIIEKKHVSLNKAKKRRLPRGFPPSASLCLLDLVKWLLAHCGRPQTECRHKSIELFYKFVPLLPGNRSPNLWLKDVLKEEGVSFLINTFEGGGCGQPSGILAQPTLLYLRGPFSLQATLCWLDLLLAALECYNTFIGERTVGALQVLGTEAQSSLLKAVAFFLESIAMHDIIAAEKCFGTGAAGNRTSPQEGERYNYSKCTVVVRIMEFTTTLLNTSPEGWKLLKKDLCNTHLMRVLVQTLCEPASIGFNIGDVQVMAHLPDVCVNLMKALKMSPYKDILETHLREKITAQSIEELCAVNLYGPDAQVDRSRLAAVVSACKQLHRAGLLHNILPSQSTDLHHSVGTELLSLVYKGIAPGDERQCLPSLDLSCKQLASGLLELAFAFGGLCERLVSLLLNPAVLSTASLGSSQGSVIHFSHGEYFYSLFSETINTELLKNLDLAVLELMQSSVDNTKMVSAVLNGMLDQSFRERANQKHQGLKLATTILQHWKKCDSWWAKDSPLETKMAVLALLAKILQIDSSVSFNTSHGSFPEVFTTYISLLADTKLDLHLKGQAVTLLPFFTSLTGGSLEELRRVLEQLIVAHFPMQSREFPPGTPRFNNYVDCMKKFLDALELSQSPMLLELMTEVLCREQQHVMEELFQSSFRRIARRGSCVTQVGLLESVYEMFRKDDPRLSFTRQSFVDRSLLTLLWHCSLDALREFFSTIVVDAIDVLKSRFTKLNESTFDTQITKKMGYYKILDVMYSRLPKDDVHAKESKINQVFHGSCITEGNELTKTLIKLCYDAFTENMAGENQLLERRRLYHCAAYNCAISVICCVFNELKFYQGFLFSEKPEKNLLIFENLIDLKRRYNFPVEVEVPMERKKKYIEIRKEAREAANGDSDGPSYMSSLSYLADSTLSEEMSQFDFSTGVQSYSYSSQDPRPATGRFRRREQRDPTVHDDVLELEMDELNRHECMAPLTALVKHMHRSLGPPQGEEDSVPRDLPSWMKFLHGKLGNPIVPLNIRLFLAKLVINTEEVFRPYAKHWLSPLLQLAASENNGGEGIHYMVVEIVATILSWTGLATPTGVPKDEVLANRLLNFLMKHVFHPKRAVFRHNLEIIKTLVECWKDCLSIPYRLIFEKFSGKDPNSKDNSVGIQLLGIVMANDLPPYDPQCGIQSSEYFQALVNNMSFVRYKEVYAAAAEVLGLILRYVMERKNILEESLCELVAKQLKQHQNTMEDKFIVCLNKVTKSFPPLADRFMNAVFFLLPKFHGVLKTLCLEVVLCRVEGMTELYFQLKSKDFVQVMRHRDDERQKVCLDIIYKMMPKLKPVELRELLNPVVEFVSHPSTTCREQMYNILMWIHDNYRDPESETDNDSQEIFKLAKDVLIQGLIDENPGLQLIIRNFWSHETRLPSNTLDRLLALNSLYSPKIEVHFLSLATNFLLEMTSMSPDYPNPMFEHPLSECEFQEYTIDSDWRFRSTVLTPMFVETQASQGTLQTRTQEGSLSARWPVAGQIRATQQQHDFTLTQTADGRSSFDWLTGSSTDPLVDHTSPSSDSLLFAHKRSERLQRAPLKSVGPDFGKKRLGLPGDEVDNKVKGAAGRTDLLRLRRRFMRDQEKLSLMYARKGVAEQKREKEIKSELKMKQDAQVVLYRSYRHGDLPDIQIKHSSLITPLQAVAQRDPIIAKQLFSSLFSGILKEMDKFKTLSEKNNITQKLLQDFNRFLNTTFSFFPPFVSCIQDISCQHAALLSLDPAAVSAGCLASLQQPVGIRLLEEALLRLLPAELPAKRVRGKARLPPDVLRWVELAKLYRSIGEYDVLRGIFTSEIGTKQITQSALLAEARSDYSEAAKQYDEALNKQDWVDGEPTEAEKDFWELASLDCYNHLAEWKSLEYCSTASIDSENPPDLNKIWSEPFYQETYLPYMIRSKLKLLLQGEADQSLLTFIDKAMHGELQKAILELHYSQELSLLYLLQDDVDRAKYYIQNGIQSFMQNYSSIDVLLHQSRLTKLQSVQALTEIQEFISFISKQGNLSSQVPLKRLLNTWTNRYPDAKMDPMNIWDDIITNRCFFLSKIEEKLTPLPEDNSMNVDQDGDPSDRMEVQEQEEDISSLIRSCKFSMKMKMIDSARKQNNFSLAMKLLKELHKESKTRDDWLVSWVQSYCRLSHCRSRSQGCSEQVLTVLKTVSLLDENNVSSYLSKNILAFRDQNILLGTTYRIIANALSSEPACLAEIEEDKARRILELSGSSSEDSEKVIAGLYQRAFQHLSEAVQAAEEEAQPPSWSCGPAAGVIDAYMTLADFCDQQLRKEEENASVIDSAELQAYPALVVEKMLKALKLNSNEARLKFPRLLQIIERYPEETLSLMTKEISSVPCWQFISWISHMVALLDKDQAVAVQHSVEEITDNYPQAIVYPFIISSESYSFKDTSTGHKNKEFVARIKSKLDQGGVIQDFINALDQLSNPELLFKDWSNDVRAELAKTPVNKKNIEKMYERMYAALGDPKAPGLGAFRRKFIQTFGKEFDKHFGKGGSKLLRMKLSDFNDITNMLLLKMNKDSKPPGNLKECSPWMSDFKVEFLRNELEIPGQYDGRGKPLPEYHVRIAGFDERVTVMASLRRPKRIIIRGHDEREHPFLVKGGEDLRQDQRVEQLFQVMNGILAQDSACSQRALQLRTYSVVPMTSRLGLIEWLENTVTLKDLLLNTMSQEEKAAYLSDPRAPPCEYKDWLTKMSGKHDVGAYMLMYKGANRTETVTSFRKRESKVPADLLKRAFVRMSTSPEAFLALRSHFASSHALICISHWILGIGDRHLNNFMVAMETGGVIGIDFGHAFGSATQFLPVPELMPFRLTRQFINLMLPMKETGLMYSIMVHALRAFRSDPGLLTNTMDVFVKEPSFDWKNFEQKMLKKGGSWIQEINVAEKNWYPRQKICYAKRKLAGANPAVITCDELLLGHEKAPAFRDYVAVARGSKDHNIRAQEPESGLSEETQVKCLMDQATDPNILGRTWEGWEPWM

- mean frequency of a subset of large deletions (>3 base pairs) (DNA-PK [1]; [3]): increased
- mean frequency of single base insertions and small deletions (<3 base pairs) (DNA-PK [1]; [3]): decreased
- DNA repair outcomes (classes and frequency) compared with FIG. 6A (HEK293 without inhibitor) (DNA-PK [2]): different DNA repair outcomes
Structure (SMILES): O=c1cc(N2CCOCC2)oc2c(-c3cccc4c3sc3ccccc34)cccc12 [NU7441]
- change of the DNA repair patterns compared with untreated samples (DNA-PK [1]; lowest concentration of inhibitor 1.56 μM, 12 different target sites, added one hour post nucleofection, harvested 48 hours): a change of the DNA repair patterns at 12 different target sites compared with untreated samples was apparent
